Data from the supplement of paper PMC5579334.
± gives the standard deviation of the averaged measurements.

Legend:
HS-PSS [1] = experiment: drug sensitivity score (DSS, CellTox-Green cytotoxicity, 72 h) (DSS (dimensionless)); higher = more cytotoxic; extreme values may be limits of the assay
Outline: (§1)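 For 72 h at 37 °C, MPNST cell lines and primary human Schwann cells were exposed in 384-well plates to five 10-fold compound dilutions. CellTox-Green, added before seeding at a final 1:1000 dilution, gave fluorescence from DNA released by disrupted cells. Signals were scaled to vehicle and positive-control wells, cultures failing plate quality control were left out, and four-parameter logistic fits were applied. Relative IC50 and drug sensitivity score were derived from the fits, with IC50 censored at the top concentration.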

S1507-2 [2] = experiment: as above
Outline: as §1

[3] = tested on: HSC1 (primary human Schwann cells); experiment: as above
Outline: as §1

STS26T [4] = experiment: as above
Outline: as §1

[5] = tested on: HSC2 (primary human Schwann cells); experiment: as above
Outline: as §1

ST8814 [6] = experiment: as above
Outline: as §1

YST-1 [7] = experiment: % inhibition of CellTiter-Glo viability at highest tested concentration (72 h), relative to DMSO and benzethonium chloride controls; higher = more inhibition
Outline: (§2)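 After seeding 750–1000 cells per well of MPNST cell lines or primary human Schwann cells into 384-well plates preprinted with each compound at five concentrations in 10-fold steps, plates were kept 72 h at 37 °C, 5% CO2. Viability was read as CellTiter-Glo ATP luminescence relative to vehicle and positive-control wells, with duplicates averaged where present. The data were fitted with four-parameter logistic models. Drug sensitivity score and relative IC50, censored at the top concentration, derive from the fits, and percent inhibition refers to the top concentration.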

HS-PSS [8] = experiment: as above
Outline: as §2

S1507-2 [9] = experiment: as above
Outline: as §2

S462 [10] = experiment: as above
Outline: as §2

[11] = tested on: HSC1 (primary human Schwann cells); experiment: as above
Outline: as §2

STS26T [12] = experiment: as above
Outline: as §2

[13] = tested on: HSC2 (primary human Schwann cells); experiment: as above
Outline: as §2

ST8814 [14] = experiment: as above
Outline: as §2

HS-Sch-2 [15] = experiment: as above
Outline: as §2

YST-1 [16] = experiment: drug sensitivity score (DSS, CellTiter-Glo viability, 72 h) (DSS (dimensionless)); higher = more sensitive; extreme values may be limits of the assay
Outline: as §2

HS-PSS [17] = experiment: as above
Outline: as §2

S1507-2 [18] = experiment: as above
Outline: as §2

S462 [19] = experiment: as above
Outline: as §2

[20] = tested on: HSC1 (primary human Schwann cells); experiment: as above
Outline: as §2

STS26T [21] = experiment: as above
Outline: as §2

[22] = tested on: HSC2 (primary human Schwann cells); experiment: as above
Outline: as §2

ST8814 [23] = experiment: as above
Outline: as §2

HS-Sch-2 [24] = experiment: as above
Outline: as §2

Row | SMILES | drug sensitivity score (HS-PSS [1]) | drug sensitivity score (S1507-2 [2]) | drug sensitivity score [3] | drug sensitivity score (STS26T [4]) | drug sensitivity score [5] | drug sensitivity score (ST8814 [6]) | % inhibition (YST-1 [7]) | % inhibition (HS-PSS [8]) | % inhibition (S1507-2 [9]) | % inhibition (S462 [10]) | % inhibition [11] | % inhibition (STS26T [12]) | % inhibition [13] | % inhibition (ST8814 [14]) | % inhibition (HS-Sch-2 [15]) | drug sensitivity score (YST-1 [16]) | drug sensitivity score (HS-PSS [17]) | drug sensitivity score (S1507-2 [18]) | drug sensitivity score (S462 [19]) | drug sensitivity score [20] | drug sensitivity score (STS26T [21]) | drug sensitivity score [22] | drug sensitivity score (ST8814 [23]) | drug sensitivity score (HS-Sch-2 [24])
1 | CC(C)(C)c1nc(-c2cccc(NS(=O)(=O)c3c(F)cccc3F)c2F)c(-c2ccnc(N)n2)s1 [Dabrafenib] (max concentration tested 2500 nM) | 0.89 | 0 | 0.888 | 0 | 0.888 | 0 | 17.6% | 26.6% | 17.6 ± 9.1% | 35.5 ± 1.5% | 39.9% | 31.1% | 31.7% | 33% | 24.5% | 0.2 | 0.78 | 0.291 ± 0.41 | 1.99 ± 0.58 | 4.42 | 3.99 | 5.89 | 1.19 | 0.66
2 | COc1cc2ncnc(Nc3ccc(F)c(Cl)c3)c2cc1OCCCN1CCOCC1 [Gefitinib] (max concentration tested 10000 nM) | 0 | 2.49 ± 3.5 | 0 | 0.896 | 0 | 5.95 | 46.2% | 61.4% | 49.1 ± 12% | 39.9 ± 12% | 46.2% | 53.6% | 54.7% | 68.4% | 60.2% | 5.06 | 5.27 | 2.3 ± 1.1 | 1.43 ± 0.69 | 2.58 | 2.37 | 3.41 | 3.34 | 4.94
3 | CS(=O)(=O)c1ccc(C(=O)Nc2ccc(Cl)c(-c3ccccn3)c2)c(Cl)c1 [Vismodegib] (max concentration tested 10000 nM) | 0 | 0 | 0 | 0 | 0 | 0 | 6.14% | 13.9% | 2.36 ± 1.7% | -4.72 ± 14% | -4.59% | 2.72% | -4.33% | -2.96% | 17.3% | 0 | 0.05 | 0 | 0 | 0 | 0 | 0 | 0 | 1.12
4 | CC(C)C[C@H](NC(=O)[C@H](Cc1ccccc1)NC(=O)c1cnccn1)B(O)O [Bortezomib] (max concentration tested 1000 nM) | 7.75 | 30.1 ± 4.9 | 19.8 | 23.5 | 20.1 | 24.3 | 100% | 93.5% | 103.6 ± 0.17% | 102.5 ± 0.77% | 101% | 102% | 102% | 103% | 101% | 24.2 | 14.4 | 24.458 ± 0.016 | 27.4 ± 0.87 | 25.6 | 23.7 | 25.7 | 26.3 | 30
5 | C[C@@H](C(=O)O)c1ccc(-c2ccccc2)c(F)c1 [Tarenflurbil] (max concentration tested 10000 nM) | 0 | 0.283 ± 0.4 | 0 | 0 | 0 | 0 | -2.65% | -1.84% | -1.93 ± 0.15% | -5.38 ± 11% | 1.66% | -0.273% | -6.06% | -0.223% | -4.22% | 0 | 0 | 0 | 0 | 0 | 0 | 0 | 0 | 0
6 | COc1cc2c(cc1O)CC[C@@H]1[C@@H]2CC[C@]2(C)[C@@H](O)CC[C@@H]12 [2-methoxyestradiol] (max concentration tested 10000 nM) | 0 | 5.59 ± 1 | 0.832 | 11.6 | 3.98 | 5.07 | 75.8% | 26.6% | 82 ± 3.8% | 98.15 ± 0.87% | 66.2% | 99.8% | 66.6% | 91.9% | 84.4% | 6.88 | 1.11 | 6.89 ± 0.4 | 12.8 ± 0.78 | 7.26 | 12.1 | 7.04 | 6.11 | 10.8
7 | Nc1nc(F)nc2c1ncn2[C@@H]1O[C@H](CO)[C@@H](O)[C@@H]1O [Fludarabine] (max concentration tested 10000 nM) | 0 | 0 | 0 | 0 | 0 | 0 | 69.7% | 24.9% | 17.2 ± 10% | 20 ± 11% | 27.8% | 31.6% | 48.6% | 1.25% | 35% | 3.5 | 2.18 | 0.851 ± 1.2 | 0.582 ± 0.72 | 0.98 | 2.39 | 2.94 | 0 | 2.33
8 | C[C@]12O[C@H](C[C@]1(O)CO)n1c3ccccc3c3c4c(c5c6ccccc6n2c5c31)CNC4=O [Lestaurtinib] (max concentration tested 1000 nM) | 0 | 1.52 ± 2.1 | 0.556 | 0.547 | 0.0333 | 1.63 | 26.8% | 45.7% | 76.7 ± 2.5% | 96.6 ± 1.5% | 54.4% | 54.5% | 51.8% | 62.3% | 68.4% | 3.41 | 5.63 | 9.04 ± 0.52 | 11.7 ± 0.16 | 11.2 | 5.07 | 13.2 | 6.44 | 7.66
9 | O=C(Nc1c[nH]nc1-c1nc2ccc(CN3CCOCC3)cc2[nH]1)NC1CC1 [AT9283] (max concentration tested 1000 nM) | 0 | 8.28 ± 1.4 | 4.98 | 8.27 | 5.2 | 15.5 | 67.4% | 40.9% | 95.6 ± 4.4% | 84.48 ± 0.23% | 83.1% | 66.9% | 83% | 92.4% | 93.4% | 6.27 | 3.34 | 10.9 ± 1.9 | 8.755 ± 0.034 | 10.7 | 5.9 | 10.5 | 13 | 4.99
10 | COc1cc2ncnc(Nc3ccc(F)c(Cl)c3)c2cc1NC(=O)/C=C/CN1CCCCC1 [Dacomitinib] (max concentration tested 1000 nM) | 1.85 | 1.18 ± 1.6 | 0 | 0 | 0 | 0 | 9.37% | 35.4% | 24.7 ± 9.1% | 7.49 ± 5.3% | 12.1% | 13.6% | 19.3% | 16.4% | 32.6% | 0 | 3 | 1.41 ± 1.5 | 0.0398 ± 0.056 | 0.027 | 0.0007 | 0.456 | 0.993 | 2.81
11 | CNC(=O)c1ccccc1Sc1ccc2c(/C=C/c3ccccn3)n[nH]c2c1 [Axitinib] (max concentration tested 10000 nM) | 0 | 1.12 ± 1.1 | 1.46 | 6.29 | 0.0899 | 0.581 | 39.9% | 38% | 38.5 ± 19% | 52.1 ± 6.1% | 66.9% | 61.1% | 53.8% | 52.7% | 67.8% | 4.01 | 2.26 | 4.27 ± 3.4 | 6.12 ± 0.37 | 7.23 | 5.81 | 6.51 | 5.17 | 6.01
12 | Cn1cc(CNCC2CCN(c3ncc(C(=O)NO)cn3)CC2)c2ccccc21 [Quisinostat] (max concentration tested 1000 nM) | 6.33 | 17.2 ± 0.8 | 7.77 | 9 | 7.35 | 13.8 | 99% | 93.3% | 102.2 ± 0.95% | 103.4 ± 0.44% | 95.9% | 99.4% | 95.7% | 102% | 98.6% | 24.2 | 14.7 | 20.8 ± 1.1 | 20.6 ± 0.34 | 16 | 15.6 | 13.9 | 21 | 15.7
13 | S=P(N1CC1)(N1CC1)N1CC1 [Thio-TEPA] (max concentration tested 50000 nM) | 0 | 0.0053 ± 0.0075 | 0.888 | 0 | 0 | 0 | 9.03% | 3.83% | -14.5 ± 2.9% | -14.47 ± 0.14% | 2.2% | -2.04% | 1.51% | -6.39% | 9.72% | 0 | 0 | 0 | 0 | 0 | 0.888 | 0 | 0.888 | 0.99
14 | CCN(CC)CCNC(=O)c1c(C)[nH]c(/C=C2\C(=O)Nc3ccc(F)cc32)c1C [Sunitinib] (max concentration tested 1000 nM) | 0 | 17.2 ± 24 | 0 | 0 | 0 | 0 | -7.4% | 11.8% | 17.7 ± 11% | 16.1 ± 0.67% | -2.06% | 8.24% | -10.9% | 14.7% | 6.65% | 0 | 0 | 0.923 ± 1.3 | 0.473 ± 0.41 | 0 | 0 | 0 | 0.732 | 0
